{"source": "paper PMC6616073", "about": "(Frontiers in Pharmacology, 2019)", "key": {"[1]": {"target": "membrane-bound Torpedo californica nAChR (Tetronarce californica, UniProt P02710+P02712+P02714+P02718)", "sequence (P02714 18-506)": "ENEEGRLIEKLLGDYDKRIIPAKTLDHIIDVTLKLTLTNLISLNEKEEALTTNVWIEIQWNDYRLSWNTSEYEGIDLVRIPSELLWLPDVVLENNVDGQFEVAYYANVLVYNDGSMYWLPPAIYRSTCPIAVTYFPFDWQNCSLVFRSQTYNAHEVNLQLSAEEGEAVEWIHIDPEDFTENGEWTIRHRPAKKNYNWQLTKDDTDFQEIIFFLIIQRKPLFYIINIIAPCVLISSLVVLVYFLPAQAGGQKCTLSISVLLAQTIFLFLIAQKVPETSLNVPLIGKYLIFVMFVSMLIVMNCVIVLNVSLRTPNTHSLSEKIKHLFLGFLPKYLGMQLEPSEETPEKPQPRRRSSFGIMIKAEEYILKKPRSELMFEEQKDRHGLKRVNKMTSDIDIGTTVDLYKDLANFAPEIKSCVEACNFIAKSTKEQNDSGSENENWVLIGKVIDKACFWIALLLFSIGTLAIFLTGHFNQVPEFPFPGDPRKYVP", "sequence (P02710 25-461)": "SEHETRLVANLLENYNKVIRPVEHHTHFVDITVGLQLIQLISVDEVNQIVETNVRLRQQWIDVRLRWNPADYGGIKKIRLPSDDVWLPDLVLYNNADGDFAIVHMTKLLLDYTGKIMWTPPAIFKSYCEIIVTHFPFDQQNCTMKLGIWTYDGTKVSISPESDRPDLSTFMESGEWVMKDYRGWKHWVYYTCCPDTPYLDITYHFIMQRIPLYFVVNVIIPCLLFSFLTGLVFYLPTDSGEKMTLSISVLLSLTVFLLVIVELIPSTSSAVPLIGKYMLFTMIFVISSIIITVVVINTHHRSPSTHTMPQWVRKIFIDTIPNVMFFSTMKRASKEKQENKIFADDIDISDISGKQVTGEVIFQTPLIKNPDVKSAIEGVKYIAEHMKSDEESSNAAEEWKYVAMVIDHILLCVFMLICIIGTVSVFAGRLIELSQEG", "sequence (P02718 22-522)": "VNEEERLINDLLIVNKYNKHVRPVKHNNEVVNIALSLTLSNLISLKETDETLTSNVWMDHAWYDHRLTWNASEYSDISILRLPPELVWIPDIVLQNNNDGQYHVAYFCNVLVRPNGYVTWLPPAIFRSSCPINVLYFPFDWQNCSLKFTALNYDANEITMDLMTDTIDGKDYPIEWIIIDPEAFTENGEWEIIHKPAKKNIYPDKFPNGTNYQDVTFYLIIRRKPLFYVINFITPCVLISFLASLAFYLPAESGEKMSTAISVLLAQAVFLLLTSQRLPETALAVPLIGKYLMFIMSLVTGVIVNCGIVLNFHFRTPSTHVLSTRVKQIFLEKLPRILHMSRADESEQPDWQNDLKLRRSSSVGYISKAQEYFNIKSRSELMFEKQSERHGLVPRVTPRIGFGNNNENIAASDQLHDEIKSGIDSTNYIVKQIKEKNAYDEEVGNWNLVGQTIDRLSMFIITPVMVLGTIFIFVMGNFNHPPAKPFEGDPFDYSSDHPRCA", "sequence (P02712 25-493)": "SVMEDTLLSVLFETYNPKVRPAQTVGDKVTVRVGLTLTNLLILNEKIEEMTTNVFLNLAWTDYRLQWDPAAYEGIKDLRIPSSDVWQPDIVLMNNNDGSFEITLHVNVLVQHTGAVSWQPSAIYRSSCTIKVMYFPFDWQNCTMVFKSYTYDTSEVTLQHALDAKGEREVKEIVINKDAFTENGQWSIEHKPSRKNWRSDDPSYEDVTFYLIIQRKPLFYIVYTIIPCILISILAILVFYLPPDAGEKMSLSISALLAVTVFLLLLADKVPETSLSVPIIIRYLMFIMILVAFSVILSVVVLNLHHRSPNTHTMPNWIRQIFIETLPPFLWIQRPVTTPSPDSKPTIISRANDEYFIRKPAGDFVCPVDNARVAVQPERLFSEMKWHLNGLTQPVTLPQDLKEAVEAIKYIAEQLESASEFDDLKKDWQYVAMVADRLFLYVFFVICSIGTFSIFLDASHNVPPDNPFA", "experiment": "biochemical", "type": "binding"}, "rat α9α10 nAChR": {"target": "T1, rat α9α10 nAChR (Rattus norvegicus, UniProt P43144+Q9JLB5)", "T1 construct": "expressed in transfected cells; host or cells: Xenopus laevis oocytes injected with cRNA (pGEMHE vector)", "T1 sequence (Q9JLB5 25-447)": "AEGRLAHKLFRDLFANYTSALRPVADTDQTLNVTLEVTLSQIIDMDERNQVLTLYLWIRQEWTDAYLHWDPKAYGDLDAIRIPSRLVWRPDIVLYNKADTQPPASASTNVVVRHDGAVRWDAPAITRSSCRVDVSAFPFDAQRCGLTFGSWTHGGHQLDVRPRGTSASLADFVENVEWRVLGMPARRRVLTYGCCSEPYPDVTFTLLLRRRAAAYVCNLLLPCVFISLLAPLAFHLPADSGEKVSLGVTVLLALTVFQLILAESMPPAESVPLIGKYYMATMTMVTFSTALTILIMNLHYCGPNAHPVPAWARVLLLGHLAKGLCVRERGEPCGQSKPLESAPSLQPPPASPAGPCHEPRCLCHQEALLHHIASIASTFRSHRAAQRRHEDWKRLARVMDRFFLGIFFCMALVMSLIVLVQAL", "T1 sequence (P43144 26-479)": "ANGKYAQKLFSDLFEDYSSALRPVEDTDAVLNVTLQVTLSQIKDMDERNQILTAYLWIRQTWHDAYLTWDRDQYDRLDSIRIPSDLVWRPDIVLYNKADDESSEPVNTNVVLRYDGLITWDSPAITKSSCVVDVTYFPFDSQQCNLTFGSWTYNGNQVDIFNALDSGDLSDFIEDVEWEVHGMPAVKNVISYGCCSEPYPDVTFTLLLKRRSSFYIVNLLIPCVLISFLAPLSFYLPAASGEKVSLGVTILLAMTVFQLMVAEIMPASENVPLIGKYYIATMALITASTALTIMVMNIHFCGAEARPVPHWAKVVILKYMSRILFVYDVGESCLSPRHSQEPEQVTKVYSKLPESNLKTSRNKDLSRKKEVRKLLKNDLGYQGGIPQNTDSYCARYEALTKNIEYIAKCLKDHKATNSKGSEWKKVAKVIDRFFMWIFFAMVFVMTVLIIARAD", "experiment": "Two-electrode voltage clamp, rat α9α10 nAChR in Xenopus oocytes", "type": "cell-based", "conditions": "X. laevis oocytes, 30 μM acetylcholine, 5 min pre-incubation with peptide, −60 mV; n = 3; read-out: IC50, inhibition of acetylcholine-induced ion currents in rat α9α10 nAChR", "procedure": "Oocytes were removed from mature, anesthetized Xenopus laevis by dissecting abdomen and removing necessary amount of ovarium. Stage V–VI Xenopus laevis oocytes were defolliculated with 2 mg/ml collagenase type I (Life Technologies, Camarillo, USA) at room temperature (21–24°C) for 2 h in Ca^2+-free Barth’s solution composed of (in mM) 88 NaCl, 1.1 KCl, 2.4 NaHCO3, 0.8 MgSO4, and 15 HEPES-NaOH at pH 7.6. Oocytes were injected with 9.2 ng of rat or human nAChR α9 and α10 cRNA (in a ratio 1:1) or human α3 and β2 or α4 and β2 cRNA (in a ratio 1:1). Oocytes were incubated at 18°C for 2–4 days before electrophysiological recordings in Barth’s solution composed of (in mM) 88 NaCl, 1.1 KCl, 2.4 NaHCO3, 0.3 Ca(NO3)2, 0.4 CaCl2, 0.8 MgSO4, and 15 HEPES-10NaOH at pH 7.6, supplemented with 40 μg/ml gentamicin and 100 μg/ml ampicillin. Recordings were performed using turbo TEC-03X amplifier (NPI Electronic, Tamm, Germany) and WinWCP recording software (University of Strathclyde, Glasgow, UK). The glass recording electrodes were filled with 3 M KCl and the electrode resistance was 0.1−0.5 MΩ. Membrane potential was clamped at −60 mV. […] The peak current amplitudes of ACh-induced responses were measured before (ACh alone) and after the preincubation of oocytes with peptides. […]"}, "[2]": {"target": "T2, AChBP from Aplysia californica (Aplysia californica, UniProt Q8WSF8)", "T2 construct": "made in house", "T2 sequence (Q8WSF8 entry or part of it)": "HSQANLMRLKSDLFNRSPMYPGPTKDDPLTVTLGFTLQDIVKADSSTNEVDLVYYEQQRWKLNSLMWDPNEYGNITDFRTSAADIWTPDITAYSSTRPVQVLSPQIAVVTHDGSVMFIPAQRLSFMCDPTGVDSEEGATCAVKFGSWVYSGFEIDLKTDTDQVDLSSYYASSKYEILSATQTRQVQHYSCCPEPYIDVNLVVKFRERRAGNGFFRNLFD", "experiment": "biochemical", "type": "binding", "conditions": "for IC50: 90 min with peptide + 5 min with radioligand, three to four independent experiments, read-out: IC50, μM (95%CI) AChBP"}, "human α9α10 nAChR": {"target": "T3, human α9α10 nAChR (Homo sapiens, UniProt Q9GZZ6+Q9UGM1)", "T3 construct": "expressed in transfected cells; host or cells: Xenopus laevis oocytes injected with cRNA (pT7TS vector)", "T3 sequence (Q9UGM1 26-479 limits assumed)": "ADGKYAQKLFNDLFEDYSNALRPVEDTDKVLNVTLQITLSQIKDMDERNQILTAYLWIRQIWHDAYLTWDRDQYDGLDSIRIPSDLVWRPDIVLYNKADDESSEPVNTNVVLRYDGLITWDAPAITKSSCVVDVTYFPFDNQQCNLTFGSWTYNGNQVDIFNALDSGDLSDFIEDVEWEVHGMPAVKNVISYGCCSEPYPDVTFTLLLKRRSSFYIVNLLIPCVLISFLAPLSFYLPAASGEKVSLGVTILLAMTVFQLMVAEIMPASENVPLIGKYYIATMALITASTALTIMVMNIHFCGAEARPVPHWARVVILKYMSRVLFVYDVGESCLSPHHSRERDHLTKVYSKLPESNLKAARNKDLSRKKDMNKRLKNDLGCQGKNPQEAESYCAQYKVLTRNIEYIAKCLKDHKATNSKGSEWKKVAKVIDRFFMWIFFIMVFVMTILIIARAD", "T3 sequence (Q9GZZ6 25-450)": "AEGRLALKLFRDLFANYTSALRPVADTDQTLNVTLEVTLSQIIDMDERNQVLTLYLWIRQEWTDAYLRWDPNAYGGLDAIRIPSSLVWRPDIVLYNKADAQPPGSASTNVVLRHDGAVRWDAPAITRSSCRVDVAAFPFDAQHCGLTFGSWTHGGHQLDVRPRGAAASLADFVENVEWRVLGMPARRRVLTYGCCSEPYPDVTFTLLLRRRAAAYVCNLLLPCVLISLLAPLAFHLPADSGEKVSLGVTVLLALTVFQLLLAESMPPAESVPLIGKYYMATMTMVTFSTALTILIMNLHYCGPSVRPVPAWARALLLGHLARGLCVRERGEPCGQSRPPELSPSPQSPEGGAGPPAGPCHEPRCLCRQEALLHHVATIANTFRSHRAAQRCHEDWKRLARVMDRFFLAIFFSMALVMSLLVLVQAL", "experiment": "Two-electrode voltage clamp, human α9α10 nAChR in Xenopus oocytes", "type": "cell-based", "conditions": "for inhibition of human α9α10 nAChR (result in words): concentrations as high as 50 µM, Xenopus oocytes, data not shown", "procedure": "(§1) Oocytes were removed from mature, anesthetized Xenopus laevis by dissecting abdomen and removing necessary amount of ovarium. Stage V–VI Xenopus laevis oocytes were defolliculated with 2 mg/ml collagenase type I (Life Technologies, Camarillo, USA) at room temperature (21–24°C) for 2 h in Ca^2+-free Barth’s solution composed of (in mM) 88 NaCl, 1.1 KCl, 2.4 NaHCO3, 0.8 MgSO4, and 15 HEPES-NaOH at pH 7.6. Oocytes were injected with 9.2 ng of rat or human nAChR α9 and α10 cRNA (in a ratio 1:1) or human α3 and β2 or α4 and β2 cRNA (in a ratio 1:1). Oocytes were incubated at 18°C for 2–4 days before electrophysiological recordings in Barth’s solution composed of (in mM) 88 NaCl, 1.1 KCl, 2.4 NaHCO3, 0.3 Ca(NO3)2, 0.4 CaCl2, 0.8 MgSO4, and 15 HEPES-10NaOH at pH 7.6, supplemented with 40 μg/ml gentamicin and 100 μg/ml ampicillin. Recordings were performed using turbo TEC-03X amplifier (NPI Electronic, Tamm, Germany) and WinWCP recording software (University of Strathclyde, Glasgow, UK). The glass recording electrodes were filled with 3 M KCl and the electrode resistance was 0.1−0.5 MΩ. Membrane potential was clamped at −60 mV. Oocytes were briefly washed with Ba^2+ Ringer’s solution ([Fuchs and Murrow, 1992]) composed of (in mM) 115 NaCl, 2.5 KCl, 1.8 BaCl2, 10 HEPES at pH 7.2, followed by three applications of 10 μM acetylcholine (ACh). Washout with Ba^2+ Ringer’s was done for 5 min between ACh applications. Oocytes were preincubated with various concentrations of Ly6 peptides for 5 min followed by their co-application with ACh. To induce ion current, we used ACh in the concentration range from 10 to 30 μM. The peak current amplitudes of ACh-induced responses were measured before (ACh alone) and after the preincubation of oocytes with peptides. The ratio between these two measurements was used to assess the activity of the tested compounds. In the experiments with α3β2 and α4β2, the above technique was also used, except that oocytes were washed in Barth`s solution. All control experiments were performed on the same day.\nRat α9 and α10 cDNAs was cloned in a pGEMHE vector; human α9, α10, α3, and β2 cDNAs were derived from pT7TS vector. Human α4 was cloned in pSP64 vector. Plasmid pT7TS constructs of human nAChR α9 and α10 subunits and human α3 and β2 subunits were linearized with XbaI restriction enzymes (NEB, Ipswich, USA). pSP64 vector was linearized with BamH1 restriction enzymes (NEB, Ipswich, USA). Rat α9 and α10 plasmids were linearized using NheI (NEB, Ipswich, USA). All plasmid constructs were sequencing before mRNA synthesis. […]"}, "human α7 nAChR": {"target": "human α7 nAChR (Homo sapiens, UniProt P36544)", "sequence (P36544 23-502)": "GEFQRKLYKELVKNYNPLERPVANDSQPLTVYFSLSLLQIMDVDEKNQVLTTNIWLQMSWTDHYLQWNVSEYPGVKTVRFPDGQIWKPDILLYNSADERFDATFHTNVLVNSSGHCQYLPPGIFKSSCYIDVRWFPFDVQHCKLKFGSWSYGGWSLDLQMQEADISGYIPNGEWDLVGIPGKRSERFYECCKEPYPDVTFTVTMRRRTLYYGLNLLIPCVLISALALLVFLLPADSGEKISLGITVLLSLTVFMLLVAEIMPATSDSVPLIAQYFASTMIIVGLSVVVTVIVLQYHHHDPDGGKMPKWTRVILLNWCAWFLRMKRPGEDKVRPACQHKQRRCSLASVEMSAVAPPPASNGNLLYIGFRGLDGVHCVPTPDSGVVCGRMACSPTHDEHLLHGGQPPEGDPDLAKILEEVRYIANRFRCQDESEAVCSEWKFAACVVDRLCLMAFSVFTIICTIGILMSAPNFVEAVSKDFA", "experiment": "cell-based", "type": "binding"}, "human α3β2 nAChR": {"test_system": "human α3β2 nAChR", "experiment": "Two-electrode voltage clamp, human α3β2 nAChR in Xenopus oocytes", "type": "cell-based", "conditions": "X. laevis oocytes; for activity on ion currents in α3β2 nAChR (result in words): 30 μM acetylcholine, 30 µM peptide in text, 50 μM in Figure 4, n = 3 or 5", "procedure": "as §1, with “day. […]” for “day.”"}, "[3]": {"conditions": "[…], 90 min with peptide + 5 min with radioligand, 20 mM Tris-HCl pH 8.0, 1 mg/ml BSA, mean (95% CI), three to four independent experiments, read-out: IC50, μM (95%CI) T. californica"}}, "note": "pIC50: −log10 of the molar value. Read-outs that look alike come from different tables or passages of the source. Positions of bridges follow the written chain, without caps; N, C: chain ends. Residues, ends and D or L forms follow the SMILES beside them.", "data": [{"compound": "CSCC[C@@H]1NC(=O)[C@H](CCCNC(=N)N)NC(=O)[C@H]([C@@H](C)O)NC(=O)[C@@H]2CCCN2C(=O)[C@H]([C@@H](C)O)NC(=O)[C@H](Cc2ccc(O)cc2)NC(=O)[C@H](Cc2ccc(O)cc2)NC(=O)[C@H]([C@@H](C)O)NC(=O)[C@H](CCCNC(=N)N)NC(=O)[C@H]([C@@H](C)O)NC(=O)[C@H]([C@@H](C)O)NC(=O)[C@@H](N)CSSC[C@@H](C(=O)O)NC(=O)[C@H](CCCCN)NC(=O)[C@H](CO)NC(=O)[C@H](C(C)C)NC(=O)[C@H](CCCCN)NC1=O", "note": "[Lynx1 (1)] (H-CTTRTYYTPTRMKVSKC-OH; disulfide 1-17)", "values": [{"measurement": "IC50", "setting": "[1]; IC50, μM (95%CI) T. californica", "result": 4.9, "unit": "µM"}, {"measurement": "pIC50", "setting": "rat α9α10 nAChR", "result": 4.57}, {"measurement": "pIC50", "setting": "[2]", "result": "< 4.00"}]}, {"compound": "CSCC[C@H](NC(=O)[C@H](CCCNC(=N)N)NC(=O)[C@@H](NC(=O)[C@@H]1CCCN1C(=O)[C@@H](NC(=O)[C@H](Cc1ccc(O)cc1)NC(=O)[C@H](Cc1ccc(O)cc1)NC(=O)[C@@H](NC(=O)[C@H](CCCNC(=N)N)NC(=O)[C@@H](NC(=O)[C@@H](N)[C@@H](C)O)[C@@H](C)O)[C@@H](C)O)[C@@H](C)O)[C@@H](C)O)C(=O)N[C@@H](CCCCN)C(=O)N[C@H](C(=O)N[C@@H](CO)C(=O)N[C@@H](CCCCN)C(=O)O)C(C)C", "note": "[Lynx1 linear (2)] (H-TTRTYYTPTRMKVSK-OH)", "values": [{"measurement": "pIC50", "setting": "human α9α10 nAChR", "result": 4.49}, {"measurement": "IC50", "setting": "[1]; [3]", "result": 13.2, "unit": "µM"}, {"measurement": "IC50", "setting": "human α7 nAChR; […], 90 min with peptide + 5 min with radioligand, Tris-HCl pH 8.0, mean (95% CI), three to four independent experiments", "result": "> 180", "unit": "µM"}, {"measurement": "IC50", "setting": "[2]", "result": "> 100", "unit": "µM"}]}, {"compound": "CSCC[C@@H]1NC(=O)[C@H](CCCNC(=N)N)NC(=O)[C@H]([C@@H](C)O)NC(=O)[C@@H]2CCCN2C(=O)[C@H]([C@@H](C)O)NC(=O)[C@H](Cc2ccc(O)cc2)NC(=O)[C@H](Cc2ccc(O)cc2)NC(=O)[C@H]([C@@H](C)O)NC(=O)[C@H](CCCNC(=N)N)NC(=O)[C@H]([C@@H](C)O)NC(=O)[C@@H](N)CSSC[C@@H](C(=O)O)NC1=O", "note": "[Lynx1 short (3)] (H-CTRTYYTPTRMC-OH; disulfide 1-12)", "values": [{"measurement": "IC50", "setting": "[1]; [3]", "result": 74.1, "unit": "µM"}, {"measurement": "IC50", "setting": "[2]", "result": "> 100", "unit": "µM"}]}, {"compound": "CSCC[C@H](NC(=O)[C@H](CCCNC(=N)N)NC(=O)[C@@H](NC(=O)[C@@H]1CCCN1C(=O)[C@@H](NC(=O)[C@H](Cc1ccc(O)cc1)NC(=O)[C@H](Cc1ccc(O)cc1)NC(=O)[C@@H](NC(=O)[C@H](CCCNC(=N)N)NC(=O)[C@@H](NC(=O)[C@@H](N)CS)[C@@H](C)O)[C@@H](C)O)[C@@H](C)O)[C@@H](C)O)C(=O)N[C@@H](CS)C(=O)O", "note": "[Lynx1 short linear (4)] (H-CTRTYYTPTRMC-OH)", "values": [{"measurement": "IC50", "setting": "[1]; [3]", "result": 15.6, "unit": "µM"}, {"measurement": "IC50", "setting": "[2]", "result": "> 100", "unit": "µM"}]}, {"compound": "CC(C)C[C@@H]1NC(=O)[C@H]([C@@H](C)O)NC(=O)[C@@H](N)CSSC[C@@H](C(=O)O)NC(=O)[C@H]([C@@H](C)O)NC(=O)[C@H](C(C)C)NC(=O)[C@H](C(C)C)NC(=O)[C@@H]2CCCN2C(=O)[C@H](CO)NC(=O)[C@H](CCC(N)=O)NC(=O)[C@H](CC(N)=O)NC(=O)[C@H](Cc2ccccc2)NC(=O)[C@@H]2CCCN2C(=O)[C@H](Cc2ccc(O)cc2)NC(=O)[C@H](CCC(=O)O)NC(=O)[C@H](C)NC(=O)[C@H](CCC(=O)O)NC(=O)[C@H](C(C)C)NC(=O)[C@H]([C@@H](C)O)NC(=O)[C@H](C(C)C)NC1=O", "note": "[SLURP1 (6)] (H-CTLVTVEAEYPFNQSPVVTC-OH; disulfide 1-20; N-terminus assumed)", "values": [{"measurement": "normalized ion current in human α3β2 nAChR (current with ACh alone = 1)", "setting": "human α3β2 nAChR; 50 μM peptide, 30 μM ACh, mean ± SEM, n = 5", "result": "0.74 ± 0.08"}, {"measurement": "inhibition of human α9α10 nAChR (result in words)", "setting": "human α9α10 nAChR", "result": "no inhibition"}]}, {"compound": "CC(C)C[C@@H]1NC(=O)[C@H](C(C)C)NC(=O)[C@H](CCCNC(=N)N)NC(=O)[C@H]([C@@H](C)O)NC(=O)[C@H](C)NC(=O)[C@H]([C@@H](C)O)NC(=O)[C@@H](N)CSSC[C@@H](C(=O)O)NC(=O)[C@H]([C@@H](C)O)NC(=O)[C@H](C(C)C)NC(=O)[C@H](CC(C)C)NC(=O)[C@@H]2CCCN2C(=O)[C@H](CC(C)C)NC(=O)[C@H](CC(=O)O)NC(=O)[C@H](CCC(=O)O)NC(=O)[C@H]([C@@H](C)O)NC(=O)[C@H](CC(N)=O)NC(=O)[C@H](CO)NC1=O", "note": "[SLURP2 (7)] (H-CTATRVLSNTEDLPLVTC-OH; disulfide 1-18; N-terminus assumed)", "values": [{"measurement": "activity on ion currents in α3β2 nAChR (result in words)", "setting": "human α3β2 nAChR", "result": "inactive"}, {"measurement": "inhibition of human α9α10 nAChR (result in words)", "setting": "human α9α10 nAChR", "result": "no inhibition"}]}, {"compound": "CSCC[C@@H]1NC(=O)[C@H](CCCNC(=N)N)NC(=O)[C@H](CCCNC(=N)N)NC(=O)[C@H](C(C)C)NC(=O)[C@H](C(C)C)NC(=O)[C@H](CCC(=O)O)NC(=O)[C@H](Cc2ccc(O)cc2)NC(=O)[C@@H]2CCCN2C(=O)[C@H](CO)NC(=O)[C@H](CCCNC(=N)N)NC(=O)[C@H](CCC(N)=O)NC(=O)[C@H](Cc2c[nH]cn2)NC(=O)[C@H](CCCNC(=N)N)NC(=O)[C@H](C(C)C)NC(=O)[C@H](CCSC)NC(=O)[C@H](CCCCN)NC(=O)[C@@H](N)CSSC[C@@H](C(=O)O)NC1=O", "note": "[SSS (5)] (H-CKMVRHQRSPYEVVRRMC-OH; disulfide 1-18; N-terminus assumed)", "values": [{"measurement": "activity on ion currents in α3β2 nAChR (result in words)", "setting": "human α3β2 nAChR", "result": "inactive"}, {"measurement": "inhibition of ion currents in human α9α10 nAChR", "setting": "human α9α10 nAChR; 100 μM peptide, 25 μM acetylcholine, X. laevis oocytes, n = 3", "result": 50, "unit": "%"}, {"measurement": "fold more active against α7 nAChR than the Lynx1 fragment (1)", "setting": "human α7 nAChR; ratio of IC50 values of the radioligand assay", "result": 10, "unit": "fold"}]}]}
